Reference: US9255295B2, “Method for evaluating the sensitizing potential of a test compound” (IMMUNOSEARCH, priority 2010, dated 2016)
Where two headings read alike, the source gives them in different places.

Tests used:
[1] = test system: genes specific for sensitization (BRAK, CTSS, DAPK2, FABP4, HSP27, IL18, HSP90, IL1R2, TPSAB1, CXCR1, DEFB1, DHFR, EHF, IVL, KRT4, MELANA, NGAL, PDZK1IP1, PI3 …); assay: Expression of the other (non-ARE) sensitization-specific genes in EPISKIN reconstructed skin (quantitative RT-PCR); assay type: cell-based, human; details: for BRAK expression / CTSS expression / CXCR1 expression / DAPK2 expression / DEFB1 expression / DHFR expression / EHF expression / FABP4 expression / HSP27 expression / HSP90 expression / IL18 expression / IVL expression / KRT4 expression / MELANA expression / NGAL expression / P13 expression / PDZK1iP1 expression / SERPINB3 expression: compared to the control;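 on CTSS NUMBER OF GENES grade: grade scored against expression in the control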;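 on CXCR1 NUMBER OF GENES grade: grade scored against expression in the control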;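 on DAPK2 NUMBER OF GENES grade: grade scored against expression in the control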
[2] = test system: ARE gene family (AKR1B10, AKR1C1, AKR1C2, CYP1B1, FTH1P, FTL, G6PD, GCLM, NQO2, SLC7A11, TXNRD1, UGT1A1, UGT1A9, YWHAZ, CD36, CYP1A1, GCLC, HMOX1, NQO1, PSME2 …)

Source text for EPISKIN model: “Sensitizing power” means the ability of a given compound to induce a sensitization reaction according to the concentration of said compound. Sensitizing power is dependent on the quantity of substance necessary to induce sensitization. Thus, the lower the sensitizing quantity necessary to induce a sensitizing response, the stronger the sensitizer is, and vice versa, the higher the sensitizing quantity necessary to induce a sensitizing response, the weaker the sensitizer is.
Thus, steps 1) and 2) will be done for each of the dilutions.

Structure (SMILES): C=CCc1ccc(O)c(OC)c1 [Eugenol]
- BRAK NUMBER OF GENES grade ([1]; 10%): 0 (if this expression is lower, the grade is 0)
- CTSS NUMBER OF GENES grade ([1]; 10%): 0 (if this expression is lower, the grade is 0)
- CXCR1 NUMBER OF GENES grade ([1]; 10%): 0 (if this expression is lower, the grade is 0)
- DAPK2 NUMBER OF GENES grade ([1]; 10%): 1 (If the expression is greater than 1.3 compared to the control, a grade of 11s given)
- DEFB1 NUMBER OF GENES grade ([1]; 10%): 0 (if this expression is lower, the grade is 0)
- DHFR NUMBER OF GENES grade ([1]; 10%): 0 (if this expression is lower, the grade is 0)
- EHF NUMBER OF GENES grade ([1]; 10%): 1 (If the expression is greater than 1.3 compared to the control, a grade of 11s given)
- FABP4 NUMBER OF GENES grade ([1]; 10%): 0 (if this expression is lower, the grade is 0)
- HSP27 NUMBER OF GENES grade ([1]; 10%): 0 (if this expression is lower, the grade is 0)
- HSP90 NUMBER OF GENES grade ([1]; 10%): 0 (if this expression is lower, the grade is 0)
- IL18 NUMBER OF GENES grade ([1]; 10%): 0 (if this expression is lower, the grade is 0)
- IVL NUMBER OF GENES grade ([1]; 10%): 0 (if this expression is lower, the grade is 0)
- KRT4 NUMBER OF GENES grade ([1]; 10%): 0 (if this expression is lower, the grade is 0)
- MELANA NUMBER OF GENES grade ([1]; 10%): 1 (If the expression is greater than 1.3 compared to the control, a grade of 11s given)
- NGAL NUMBER OF GENES grade ([1]; 10%): 0 (if this expression is lower, the grade is 0)
- P13 NUMBER OF GENES grade ([1]; 10%): 0 (if this expression is lower, the grade is 0)
- PDZK1iP1 NUMBER OF GENES grade ([1]; 10%): 0 (if this expression is lower, the grade is 0)
- SENS >1.3 (number of genes) ([1]; 10%): 4
- SERPINB3 NUMBER OF GENES grade ([1]; 10%): 0 (if this expression is lower, the grade is 0)
- TOTAL SENS (number of genes) ([1]; 10%): 4
- BRAK expression ([1]; 10%): 0.7
- CTSS expression ([1]; 10%): 1.0
- CXCR1 expression ([1]; 10%): 0.8
- DAPK2 expression ([1]; 10%): 1.3
- DEFB1 expression ([1]; 10%): 1.1
- DHFR expression ([1]; 10%): 0.8
- EHF expression ([1]; 10%): 1.3
- FABP4 expression ([1]; 10%): 0.6
- HSP27 expression ([1]; 10%): 1.1
- HSP90 expression ([1]; 10%): 1.1
- IL18 expression ([1]; 10%): 1.1
- IVL expression ([1]; 10%): 0.9
- KRT4 expression ([1]; 10%): 0.8
- MELANA expression ([1]; 10%): 1.9
- NGAL expression ([1]; 10%): 0.7
- P13 expression ([1]; 10%): 0.9
- PDZK1iP1 expression ([1]; 10%): 0.9
- SERPINB3 expression ([1]; 10%): 1.2
- BRAK NUMBER OF GENES grade ([1]; 50%): 0 (if this expression is lower, the grade is 0)
- CTSS NUMBER OF GENES grade ([1]; 50%): 0 (if this expression is lower, the grade is 0)
- CXCR1 NUMBER OF GENES grade ([1]; 50%): 1 (If the expression is greater than 1.3 compared to the control, a grade of 11s given)
- DAPK2 NUMBER OF GENES grade ([1]; 50%): 1 (If the expression is greater than 1.3 compared to the control, a grade of 11s given)
- DEFB1 NUMBER OF GENES grade ([1]; 50%): 1 (If the expression is greater than 1.3 compared to the control, a grade of 11s given)
- DHFR NUMBER OF GENES grade ([1]; 50%): 0 (if this expression is lower, the grade is 0)
- EHF NUMBER OF GENES grade ([1]; 50%): 0 (if this expression is lower, the grade is 0)
- FABP4 NUMBER OF GENES grade ([1]; 50%): 1 (If the expression is greater than 1.3 compared to the control, a grade of 11s given)
- HSP27 NUMBER OF GENES grade ([1]; 50%): 1 (If the expression is greater than 1.3 compared to the control, a grade of 11s given)
- HSP90 NUMBER OF GENES grade ([1]; 50%): 1 (If the expression is greater than 1.3 compared to the control, a grade of 11s given)
- IL18 NUMBER OF GENES grade ([1]; 50%): 0 (if this expression is lower, the grade is 0)
- IVL NUMBER OF GENES grade ([1]; 50%): 1 (If the expression is greater than 1.3 compared to the control, a grade of 11s given)
- KRT4 NUMBER OF GENES grade ([1]; 50%): 1 (If the expression is greater than 1.3 compared to the control, a grade of 11s given)
- MELANA NUMBER OF GENES grade ([1]; 50%): 0 (if this expression is lower, the grade is 0)
- NGAL NUMBER OF GENES grade ([1]; 50%): 1 (If the expression is greater than 1.3 compared to the control, a grade of 11s given)
- P13 NUMBER OF GENES grade ([1]; 50%): 1 (If the expression is greater than 1.3 compared to the control, a grade of 11s given)
- PDZK1iP1 NUMBER OF GENES grade ([1]; 50%): 1 (If the expression is greater than 1.3 compared to the control, a grade of 11s given)
- SENS >1.3 (number of genes) ([1]; 50%): 15
- SERPINB3 NUMBER OF GENES grade ([1]; 50%): 1 (If the expression is greater than 1.3 compared to the control, a grade of 11s given)
- TOTAL SENS (number of genes) ([1]; 50%): 15
- BRAK expression ([1]; 50%): 0.4
- CTSS expression ([1]; 50%): 0.1
- CXCR1 expression ([1]; 50%): 2.2
- DAPK2 expression ([1]; 50%): 1.5
- DEFB1 expression ([1]; 50%): 3.0
- DHFR expression ([1]; 50%): 0.6
- EHF expression ([1]; 50%): 1.2
- FABP4 expression ([1]; 50%): 1.4
- HSP27 expression ([1]; 50%): 5.4
- HSP90 expression ([1]; 50%): 9.1
- IL18 expression ([1]; 50%): 0.7
- IVL expression ([1]; 50%): 2.6
- KRT4 expression ([1]; 50%): 4.6
- MELANA expression ([1]; 50%): 1.0
- NGAL expression ([1]; 50%): 1.3
- P13 expression ([1]; 50%): 1.4
- PDZK1iP1 expression ([1]; 50%): 1.7
- SERPINB3 expression ([1]; 50%): 1.4
- sensitizing power (class) (EPISKIN model): WEAK
- ARE >1.3 (number of genes) [2]: 10
- TOTAL ARE (number of genes) [2]: 10
- AHR expression ([2]; human, 6 h, 10 %): 0.8
- AKR1B10 expression ([2]; human, 6 h, 10 %): 0.9
- AKR1C1 expression ([2]; human, 6 h, 10 %): 1.3
- AKR1C2 expression ([2]; human, 6 h, 10 %): 1.1
- ARE >1.3 (number of genes) ([2]; human, 6 h, 10 %): 3
- CD36 expression ([2]; human, 6 h, 10 %): 1.7
- CYP1A1 expression ([2]; human, 6 h, 10 %): 0.5
- CYP1B1 expression ([2]; human, 6 h, 10 %): 0.6
- FTH1P expression ([2]; human, 6 h, 10 %): 1.1
- FTL expression ([2]; human, 6 h, 10 %): 1.1
- GCLC expression ([2]; human, 6 h, 10 %): 1.3
- GCLM expression ([2]; human, 6 h, 10 %): 1.1
- HMOX1 expression ([2]; human, 6 h, 10 %): 1.3
- NQO1 expression ([2]; human, 6 h, 10 %): 1.1
- NQO2 expression ([2]; human, 6 h, 10 %): 1.0
- S100A8 expression ([2]; human, 6 h, 10 %): 1.0
- SLC7A11 expression ([2]; human, 6 h, 10 %): 1.2
- TOTAL ARE (number of genes) ([2]; human, 6 h, 10 %): 3
- TXNRD1 expression ([2]; human, 6 h, 10 %): 1.1
- UGT1A1 expression ([2]; human, 6 h, 10 %): 1.0
- UGT1A9 expression ([2]; human, 6 h, 10 %): 0.7
- AHR expression ([2]; human, 6 h, 50 %): 1.3
- AKR1B10 expression ([2]; human, 6 h, 50 %): 1.0
- AKR1C1 expression ([2]; human, 6 h, 50 %): 0.7
- AKR1C2 expression ([2]; human, 6 h, 50 %): 0.7
- CD36 expression ([2]; human, 6 h, 50 %): 2.3
- CYP1A1 expression ([2]; human, 6 h, 50 %): 2.3
- CYP1B1 expression ([2]; human, 6 h, 50 %): 0.9
- FTH1P expression ([2]; human, 6 h, 50 %): 2.3
- FTL expression ([2]; human, 6 h, 50 %): 4.2
- GCLC expression ([2]; human, 6 h, 50 %): 3.2
- GCLM expression ([2]; human, 6 h, 50 %): 1.1
- HMOX1 expression ([2]; human, 6 h, 50 %): 2.4
- NQO1 expression ([2]; human, 6 h, 50 %): 0.7
- NQO2 expression ([2]; human, 6 h, 50 %): 1.3
- S100A8 expression ([2]; human, 6 h, 50 %): 1.9
- SLC7A11 expression ([2]; human, 6 h, 50 %): 2.6
- TXNRD1 expression ([2]; human, 6 h, 50 %): 3.0
- UGT1A1 expression ([2]; human, 6 h, 50 %): 0.5
- UGT1A9 expression ([2]; human, 6 h, 50 %): 25.0
